# Experimental data: ChEMBL document CHEMBL3612057, “Discovery of indolizines containing triazine moiety as new leads for the development of antitumoral agents targeting mitotic events” (2015)
# Activity calls are given as the source filed them. No cut-off for these calls is given here.
# Legend:
# OVCAR-3 = test: Cytotoxicity against human OVCAR3 cells assessed as growth inhibition at 10 uM after 24 hrs by SRB assay; assay type: functional; conditions: for inhibition of growth at 10 µM: OVCAR-3, 24 h, read-out: GI
# HL-60(TB) = test: Cytotoxicity against human HL-60(TB) cells assessed as growth inhibition at 10 uM after 24 hrs by SRB assay; assay type: functional
# MDA-MB-435 = test: Cytotoxicity against human MDA-MB-435 cells assessed as growth inhibition at 10 uM after 24 hrs by SRB assay; assay type: functional
# A549 = test: Cytotoxicity against human A549 cells assessed as growth inhibition at 10 uM after 24 hrs by SRB assay; assay type: functional; conditions: A549, 24 h, read-out: GI
# MCF7 = test: Cytotoxicity against human MCF7 cells assessed as growth inhibition at 10 uM after 24 hrs by SRB assay; assay type: functional; conditions: for inhibition of growth at 10 µM: MCF7, 24 h, read-out: GI
# SF-295 = test: Cytotoxicity against human SF295 cells assessed as growth inhibition at 10 uM after 24 hrs by SRB assay; assay type: functional; conditions: for inhibition of growth at 10 µM: SF-295, 24 h, read-out: GI
# UACC-62 = test: Cytotoxicity against human UACC62 cells assessed as growth inhibition at 10 uM after 24 hrs by SRB assay; assay type: functional; conditions: for inhibition of growth at 10 µM: UACC-62, 24 h, read-out: GI
# MDA-MB-231 = test: Cytotoxicity against human MDA-MB-231 cells assessed as growth inhibition at 10 uM after 24 hrs by SRB assay; assay type: functional; conditions: MDA-MB-231, 24 h, read-out: GI
# OVCAR-8 = test: Cytotoxicity against human OVCAR8 cells assessed as growth inhibition at 10 uM after 24 hrs by SRB assay; assay type: functional; conditions: OVCAR-8, 24 h, read-out: GI
# UACC-257 = test: Cytotoxicity against human UACC257 cells assessed as growth inhibition at 10 uM after 24 hrs by SRB assay; assay type: functional; conditions: UACC-257, 24 h, read-out: GI
# NCI-H226 = test: Cytotoxicity against human NCI-H226 cells assessed as growth inhibition at 10 uM after 24 hrs by SRB assay; assay type: functional
# CAKI-1 = test: Cytotoxicity against human CAKI-1 cells assessed as growth inhibition at 10 uM after 24 hrs by SRB assay; assay type: functional; conditions: for inhibition of growth at 10 µM: CAKI-1, 24 h, read-out: GI
# NCI-H460 = test: Cytotoxicity against human NCI-H460 cells assessed as growth inhibition at 10 uM after 24 hrs by SRB assay; assay type: functional; conditions: for inhibition of growth at 10 µM: NCI-H460, 24 h, read-out: GI
# ACHN = test: Cytotoxicity against human ACHN cells assessed as growth inhibition at 10 uM after 24 hrs by SRB assay; assay type: functional; conditions: read-out: GI
# TK-10 = test: Cytotoxicity against human TK10 cells assessed as growth inhibition at 10 uM after 24 hrs by SRB assay; assay type: functional
# RPMI-8226 = test: Cytotoxicity against human RPMI8226 cells assessed as growth inhibition at 10 uM after 24 hrs by SRB assay; assay type: functional
# PC-3 = test: Cytotoxicity against human PC3 cells assessed as growth inhibition at 10 uM after 24 hrs by SRB assay; assay type: functional; conditions: for inhibition of growth at 10 µM: PC-3, 24 h, read-out: GI
# SK-OV-3 = test: Cytotoxicity against human SKOV3 cells assessed as growth inhibition at 10 uM after 24 hrs by SRB assay; assay type: functional; conditions: for inhibition of growth at 10 µM: SK-OV-3, 24 h, read-out: GI
# SR = test: Cytotoxicity against human SR cells assessed as growth inhibition at 10 uM after 24 hrs by SRB assay; assay type: functional
# [1] = Cytotoxicity against human Hs578T cells assessed as growth inhibition at 10 uM after 24 hrs by SRB assay; assay type: functional; conditions: Hs-578T, read-out: GI
# Malme-3M = test: Cytotoxicity against human MALME-3M cells assessed as growth inhibition at 10 uM after 24 hrs by SRB assay; assay type: functional; conditions: read-out: GI
# SF-539 = test: Cytotoxicity against human SF539 cells assessed as growth inhibition at 10 uM after 24 hrs by SRB assay; assay type: functional; conditions: for inhibition of growth at 10 µM: SF-539, 24 h, read-out: GI
# K562 = test: Cytotoxicity against human K562 cells assessed as growth inhibition at 10 uM after 24 hrs by SRB assay; assay type: functional
# RXF 393 = test: Cytotoxicity against human RXF393 cells assessed as growth inhibition at 10 uM after 24 hrs by SRB assay; assay type: functional; conditions: RXF 393, 24 h, read-out: GI
# SK-MEL-5 = test: Cytotoxicity against human SK-MEL-5 cells assessed as growth inhibition at 10 uM after 24 hrs by SRB assay; assay type: functional
# OVCAR-4 = test: Cytotoxicity against human OVCAR4 cells assessed as growth inhibition at 10 uM after 24 hrs by SRB assay; assay type: functional; conditions: for inhibition of growth at 10 µM: OVCAR-4, 24 h, read-out: GI
# Ovis aries = species: Ovis aries; test: Inhibition of sheep tubulin polymerization at 100 uM by fluorescence assay
# HOP-92 = test: Cytotoxicity against human HOP92 cells assessed as growth inhibition at 10 uM after 24 hrs by SRB assay; assay type: functional
# SK-MEL-28 = test: Cytotoxicity against human SK-MEL-28 cells assessed as growth inhibition at 10 uM after 24 hrs by SRB assay; assay type: functional; conditions: for inhibition of growth at 10 µM: SK-MEL-28, 24 h, read-out: GI
# NCI-H522 = test: Cytotoxicity against human NCI-H522 cells assessed as growth inhibition at 10 uM after 24 hrs by SRB assay; assay type: functional; conditions: for inhibition of growth at 10 µM: NCI-H522, 24 h, read-out: GI
# NCI/ADR-RES = test: Cytotoxicity against human NCI/ADR-RES cells assessed as growth inhibition at 10 uM after 24 hrs by SRB assay; assay type: functional; conditions: read-out: GI
# CCRF-CEM = test: Cytotoxicity against human CCRF-CEM cells assessed as growth inhibition at 10 uM after 24 hrs by SRB assay; assay type: functional
# 786-0 = test: Cytotoxicity against human 786-0 cells assessed as growth inhibition at 10 uM after 24 hrs by SRB assay; assay type: functional; conditions: 786-0, 24 h, read-out: GI
# HOP-62 = test: Cytotoxicity against human HOP62 cells assessed as growth inhibition at 10 uM after 24 hrs by SRB assay; assay type: functional; conditions: HOP-62, 24 h, read-out: GI
# HCT-116 = test: Cytotoxicity against human HCT116 cells assessed as growth inhibition at 10 uM after 24 hrs by SRB assay; assay type: functional
# SNB-75 = test: Cytotoxicity against human SNB75 cells assessed as growth inhibition at 10 uM after 24 hrs by SRB assay; assay type: functional; conditions: SNB-75, 24 h, read-out: GI
# U-251 = test: Cytotoxicity against human U251 cells assessed as growth inhibition at 10 uM after 24 hrs by SRB assay; assay type: functional; conditions: for inhibition of growth at 10 µM: U-251, 24 h, read-out: GI
# T47D = test: Cytotoxicity against human T47D cells assessed as growth inhibition at 10 uM after 24 hrs by SRB assay; assay type: functional
structure (smiles),measurement,setting,value
COc1nc(OC)nc(-c2cc(C(=O)c3cc(OC)c(OC)c(OC)c3)n3ccc(C)cc23)n1,inhibition of growth at 10 µM,OVCAR-3,75%
same,inhibition of growth at 10 µM,"HL-60(TB); HL-60, 24 h, read-out: GI",60%
same,inhibition of growth at 10 µM,"MDA-MB-435; MDA-MB-435, 24 h, read-out: GI",100%
same,inhibition of growth at 10 µM,A549,36%
same,inhibition of growth at 10 µM,MCF7,73%
same,growth inhibition (GI),SF-295,inactive
same,inhibition of growth at 10 µM,UACC-62,63%
same,inhibition of growth at 10 µM,MDA-MB-231,25%
same,inhibition of growth at 10 µM,OVCAR-8,15%
same,inhibition of growth at 10 µM,UACC-257,38%
same,growth inhibition (GI),NCI-H226,inactive
same,inhibition of growth at 10 µM,CAKI-1,25%
same,inhibition of growth at 10 µM,NCI-H460,16%
same,inhibition of growth at 10 µM,ACHN,47%
same,growth inhibition (GI),TK-10,inactive
same,inhibition of growth at 10 µM,"RPMI-8226; RPMI-8226, 24 h, read-out: GI",30%
same,inhibition of growth at 10 µM,PC-3,36%
same,inhibition of growth at 10 µM,SK-OV-3,29%
same,inhibition of growth at 10 µM,SR; read-out: GI,74%
same,inhibition of growth at 10 µM,[1],35%
same,inhibition of growth at 10 µM,Malme-3M,61%
same,inhibition of growth at 10 µM,SF-539,29%
same,inhibition of growth at 10 µM,"K562; K562, 24 h, read-out: GI",56%
same,inhibition of growth at 10 µM,RXF 393,41%
same,inhibition of growth at 10 µM,"SK-MEL-5; SK-MEL-5, 24 h, read-out: GI",63%
same,inhibition of growth at 10 µM,OVCAR-4,21%
same,inhibition,Ovis aries,inactive
same,growth inhibition (GI),HOP-92,inactive
same,inhibition of growth at 10 µM,SK-MEL-28,40%
same,inhibition of growth at 10 µM,NCI-H522,43%
same,inhibition of growth at 10 µM,NCI/ADR-RES,24%
same,inhibition of growth at 10 µM,CCRF-CEM; read-out: GI,26%
same,inhibition of growth at 10 µM,786-0,20%
same,inhibition of growth at 10 µM,HOP-62,28%
same,inhibition of growth at 10 µM,"HCT-116; HCT-116, 24 h, read-out: GI",27%
same,inhibition of growth at 10 µM,SNB-75,58%
same,inhibition of growth at 10 µM,U-251,15%
Cn1c(-c2cc(C(=O)c3ccc(Br)cc3)n3ccccc23)nc(=O)[nH]c1=O,inhibition,Ovis aries,inactive
COc1nc(OC)nc(-c2cc(C(=O)c3ccc(Br)cc3)n3c2ccc2ccccc23)n1,inhibition of growth at 10 µM,OVCAR-3,31%
same,growth inhibition (GI),HL-60(TB),inactive
same,growth inhibition (GI),MDA-MB-435,inactive
same,inhibition of growth at 10 µM,A549,49%
same,inhibition of growth at 10 µM,MCF7,44%
same,inhibition of growth at 10 µM,SF-295,59%
same,growth inhibition (GI),UACC-62,inactive
same,inhibition of growth at 10 µM,MDA-MB-231,80%
same,inhibition of growth at 10 µM,OVCAR-8,50%
same,inhibition of growth at 10 µM,UACC-257,30%
same,inhibition of growth at 10 µM,"NCI-H226; NCI-H226, 24 h, read-out: GI",35%
same,inhibition of growth at 10 µM,CAKI-1,33%
same,inhibition of growth at 10 µM,NCI-H460,68%
same,inhibition of growth at 10 µM,ACHN,22%
same,growth inhibition (GI),TK-10,inactive
same,growth inhibition (GI),RPMI-8226,inactive
same,inhibition of growth at 10 µM,PC-3,37%
same,growth inhibition (GI),SK-OV-3,inactive
same,growth inhibition (GI),SR,inactive
same,inhibition of growth at 10 µM,T47D; read-out: GI,31%
same,inhibition of growth at 10 µM,[1],56%
same,inhibition of growth at 10 µM,Malme-3M,58%
same,growth inhibition (GI),SF-539,inactive
same,growth inhibition (GI),K562,inactive
same,inhibition of growth at 10 µM,RXF 393,61%
same,growth inhibition (GI),SK-MEL-5,inactive
same,inhibition of growth at 10 µM,OVCAR-4,30%
same,inhibition,Ovis aries,inactive
same,growth inhibition (GI),HOP-92,inactive
same,inhibition of growth at 10 µM,SK-MEL-28,43%
same,growth inhibition (GI),NCI-H522,inactive
same,inhibition of growth at 10 µM,NCI/ADR-RES,43%
same,growth inhibition (GI),CCRF-CEM,inactive
same,inhibition of growth at 10 µM,786-0,45%
same,inhibition of growth at 10 µM,HOP-62,79%
same,growth inhibition (GI),HCT-116,inactive
same,inhibition of growth at 10 µM,SNB-75,69%
same,growth inhibition (GI),U-251,inactive
COc1nc(-c2cc(C(=O)c3ccc(Br)cc3)n3ccccc23)[nH]c(=O)n1,inhibition,Ovis aries,inactive
COc1nc(OC)nc(-c2cc(C(=O)c3ccc(C)cc3)n3ccc(C#N)cc23)n1,growth inhibition (GI),OVCAR-3,inactive
same,growth inhibition (GI),HL-60(TB),inactive
same,growth inhibition (GI),MDA-MB-435,inactive
same,inhibition of growth at 10 µM,A549,11%
same,growth inhibition (GI),MCF7,inactive
same,inhibition of growth at 10 µM,SF-295,47%
same,inhibition of growth at 10 µM,UACC-62,14%
same,inhibition of growth at 10 µM,MDA-MB-231,39%
same,inhibition of growth at 10 µM,OVCAR-8,14%
same,inhibition of growth at 10 µM,UACC-257,16%
same,growth inhibition (GI),NCI-H226,inactive
same,growth inhibition (GI),CAKI-1,inactive
same,growth inhibition (GI),NCI-H460,inactive
same,inhibition of growth at 10 µM,ACHN,15%
same,growth inhibition (GI),TK-10,inactive
same,growth inhibition (GI),RPMI-8226,inactive
same,growth inhibition (GI),PC-3,inactive
same,inhibition of growth at 10 µM,SK-OV-3,42%
same,growth inhibition (GI),SR,inactive
same,growth inhibition (GI),T47D,inactive
same,inhibition of growth at 10 µM,[1],42%
same,inhibition of growth at 10 µM,Malme-3M,17%
same,inhibition of growth at 10 µM,SF-539,42%
same,growth inhibition (GI),K562,inactive
same,inhibition of growth at 10 µM,RXF 393,52%
same,growth inhibition (GI),SK-MEL-5,inactive
same,growth inhibition (GI),OVCAR-4,inactive
same,inhibition,Ovis aries,inactive
same,inhibition of growth at 10 µM,"HOP-92; HOP-92, 24 h, read-out: GI",11%
same,growth inhibition (GI),SK-MEL-28,inactive
same,inhibition of growth at 10 µM,NCI-H522,21%
same,growth inhibition (GI),CCRF-CEM,inactive
same,inhibition of growth at 10 µM,786-0,40%
same,inhibition of growth at 10 µM,HOP-62,60%
same,growth inhibition (GI),HCT-116,inactive
same,inhibition of growth at 10 µM,SNB-75,-14%
same,inhibition of growth at 10 µM,U-251,56%
